Measured values published in patent US20260109695A1, “PEROXIREDOXIN 3 INHIBITORS AND METHODS OF USE FOR TREATING CANCER” (WAKE FOREST UNIVERSITY HEALTH SCIENCES, priority 2022, published 2026).
Values after ≈ are worked out from the molar mass of the structure shown.

Experiments:
[1] = tested on: human SK-OV-3 ovarian cancer cells; experiment: Cellular Activity Assay (cytotoxicity, crystal violet); type: cell-based; conditions: SK-OV-3 cells, 48 hr treatment
Text: (§1) To test the activity of compounds, two complimentary assays were used as described below. The Biochemical PRX3 Inhibition Assay tests the ability of each compound to crosslink PRX3 in a simple, in vitro system. In the Cellular Activity Assay, we are testing the ability of compounds to kill SK-OV-3 ovarian cancer cells.
The Cellular Activity Assay measures the EC50 of each compound in human SK-OV-3 ovarian cancer cells TS to be taken into the cell, transported to the mitochondria, and crosslink PRX3.
The cytotoxicity of compounds was measured as described in Nelson et al. (2021) Antioxidants (Basel) 10, 150; Cunniff et al. (2015) PloS one 10, e0127310; and Newick et al. (2012) PloS one 7, e39404. SK-OV-3 is an adherent, epithelial, adenocarcenoma cell line obtained from ATCC (ref #: HTB-77). SK-OV-3 cells are resistant to the commonly used chemotherapeutics, cis-platinum and doxorubicin. For this PRX3 crosslinking assay, SK-OV-3 cells were plated in a 96-well plate. After 24 h recovery, the cells were treated for 48 hr with multiple concentrations of each compound ranging from 0.1-100 μM.
Cells were washed with PBS to remove dead cells and the remaining live cells were fixed with 3.0% formaldehyde and stained with 0.1% crystal violet. The amount of crystal violet was determined by reading the absorbance at 540 nm (crystal violet dye dissolved in 100% methanol) using a plate reader. The signal for crystal violet dye is proportional to the biomass of remaining live cells. GraphPad Prism9 software was used to calculate the effective inhibitory concentration (EC50) of test compounds. Results for each compound, are normalized to the amount of cells in control wells treated with the equivalent concentration of DMSO (negative control). TS or Compound B were included in each set of assays as a positive control.

[2] = target: T1, purified human PRX3 (Homo sapiens, UniProt P30048); experiment: Biochemical PRX3 Inhibition Assay (crosslink by SDS-PAGE, mono-adduct by MALDI-TOF MS); conditions: 1-2 hr at 37° C.
T1 construct: made in house
T1 sequence (P30048 62-256): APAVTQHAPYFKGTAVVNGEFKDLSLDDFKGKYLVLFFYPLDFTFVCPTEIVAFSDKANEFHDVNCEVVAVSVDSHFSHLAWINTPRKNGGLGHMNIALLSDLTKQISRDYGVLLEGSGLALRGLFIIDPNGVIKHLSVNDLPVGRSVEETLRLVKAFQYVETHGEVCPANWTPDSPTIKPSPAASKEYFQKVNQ
Experimental: as §1
This assay tests the ability of each compound to form a covalent adduct with PRX3. The assay is performed as described in Nelson et al. (2021) Antioxidants (Basel) 10, 150; and Cunniff et al. (2015) PloS one 10, e0127310, and follows the appearance of non-reducible PRX3 crosslinks by SDS PAGE gel electrophoresis and follows the appearance of single PRX3 adducts by mass spectrometry. For this assay, purified human PRX3, hydrogen peroxide (the PRX3 substrate) and all the components required to enable PRX3 to catalytically cycle (thioredoxin-thioredoxin reductase-NAPDH system) are included (details below).
The biochemical PRX3 Inhibition assay contains 100 µM PRX3, 50 µM human TRX2, […] mouse thioredoxin reductase, and a NADPH regenerating system composed of 3.2 mM glucose 6-phosphate, 3.2 U/ml glucose 6-phosphate dehydrogenase and 0.4 mM NADPH. Samples are incubated for 1-2 hr at 37° C. with either 0.2 mM TS (positive control), compounds or an equivalent volume of DMSO (negative control). During this incubation, hydrogen peroxide is added to induce turnover of PRX3. Reactions are stopped by the addition of a buffer containing 100 mM dithiolthreitol (to break disulfide bonds) and SDS (detergent to denature proteins). NADPH, Glucose 6-Phosphate, and glucose 6-phosphate dehydrogenase were purchased from Sigma Aldrich. PRX3, thioredoxin, and thioredoxin reductase were all purified to >98% purity in the Lowther laboratory according to protocols referenced in Nelson et al. (2021) Antioxidants (Basel) 10, 150; and Cunniff et al. (2015) PloS one 10, e0127310.
To measure the amount of PRX3 crosslink, proteins in the reaction were separated by SDS-polyacrlyamide gel electrophoresis and stained for total protein using GelCode Blue (Life Technologies). The amount of unmodified PRX3 and TS-PRX3 crosslink was measured by densiometric analysis of the signal for the PRX3 band running at the MW of a PRX3 crosslink (−46 kDa) compared to the PRX3 signal at the MW of the un-modified PRX3 (˜23 kD).
To measure covalent adduct formation on a single PRX3 monomer, each reaction was exchanged into a mass spectrometry compatible buffer containing 40 mM ammonium citrate, pH 8.3 made in HPLC water. Sample was mixed 1:1 with a matrix solution containing 30 mg/mL sinapinic acid in 70% (vol/vol) acetonitrile, 0.2% formic acid and spotted to onto the sample plate. PRX3 mass was measured by MALDI-TOF MS analysis on a Bruker Daltonics MALDI-TOF MS spectrometer. Spectra were analyzed in FLEXAnalysis Software. The intensity of the reduced PRX3 peak (SH) and intensity of the analog adduct peak was determined and corrected for background signal at the adduct peak in the DMSO control. The fraction of single analog adduct in the monomer peak was determined by dividing the intensity of the adduct peak by the summed intensity of the SH and adduct peaks.

[3] = Solubility Assay; type: physicochemical; conditions: 20 mM HEPES, 100 mM NaCl, pH 7.5, 18-24 hours at ambient temperature
Experimental: A 20 mM stock solution was made for each compound in DMSO. To measure solubility, 0.03-0.05 mL of the stock was added to 0.27 mL 20 mM HEPES, 100 mM NaCl, pH 7.5. The solution was mixed and rotated 18-24 hours at ambient temperature. The next day, solutions were centrifuged for 10 min at 20,000×g at 24° C. to remove insoluble, solid material. Next, 100 μL of the supernatant containing the soluble compound was added to 900 μL DMSO and High Performance Liquid Chromatography was performed as described in Table 1 and either HPLC gradient 1 (Table 2) for HPLC gradient 2 (Table 3). For each analog, a 200 μM standard and a 20 μM standard were prepared and run in parallel (standards were dissolved completely in 100% DMSO). The amount of compound in the experimental sample was calculated by comparing the area under the curve for compound peak to the area for the closest standard and correcting for dilution.

[4] = tested on: Enterococcus hirae (ATCC #10541); experiment: Antimicrobial Activity Assay; type: cell-based
Experimental: The overnight growth was then diluted into growth media to make a single solution of E. hirae with a final optical density at 600 nm=0.02 AU. A 20 mM stock solution of Thiostrepton in DMSO was made and used to make multiple dilutions of TS in DMSO. Each TS dilution (0.1 mL) was then added to a test tube containing 10 mL of the diluted E. hirae and grown at 37° C. overnight while shaking at 180 rpm. The next morning, each tube was visually inspected to determine if the cells grew. Final concentrations tested were 0.120, 0.090, 0.075, 0.060, 0.045, 0.030, and 0.015 μM TS. […] Three replicates were made on three separate days (n=9). […] For TS analogs, the dilute E. hirae was treated with 20 µM final concentration of each analog (three replicates each). […] DMSO was used as a positive control (complete cell growth) and 20 µM thiostrepton was used as a negative control.

[5] = tested on: 578 cancer cells lines; conditions: of 578 cancer cells lines tested; cited from earlier work
[6] = E. hirae, overnight at 37° C., n=9

C=C(NC(=O)C(=C)NC(=O)c1csc(C2=N[C@@H]3c4csc(n4)[C@H]4NC(=O)c5csc(n5)[C@H]([C@](C)(O)[C@@H](C)O)NC(=O)[C@H]5CSC(=N5)/C(=C/C)NC(=O)[C@H]([C@@H](C)O)NC(=O)c5csc(n5)[C@]3(CC2)NC(=O)[C@H](C)NC(=O)C(=C)NC(=O)[C@H](C)NC(=O)[C@H]([C@@H](C)CC)N[C@@H]2C=Cc3c([C@H](C)O)cc(nc3[C@H]2O)C(=O)O[C@@H]4C)n1)C(N)=O [Thiostrepton, reference compound]
EC50 [1]: 1 to 10 µM | PRX3 Inhibition (Crosslink + Mono-adduct) [2]: ++ (50-90%) | solubility [3]: + (<0.1 mM) | TS concentrations at which complete growth was observed [4, 6]: ≤ 0.030 µM | TS concentrations at which no growth was observed [4, 6]: ≥ 0.045 µM | MIC ([4]; Enterococcus hirae, ATCC10541, read-out: Antimicrobial Activity): 0.02 to 0.2 µM (≈ 0.0333 to 0.333 µg/mL) | Number of tumor cells lines with meaningful efficacy [5]: 403
